Assay: gradient 5% acetonitrile 3 min, to 50% in 2 min, to 85% in 15 min, held 3 min, 100 µL/min
Conditions: column: Zorbax Extend-C18 2.1 x 50 mm; eluents: water / acetonitrile, 0.1% formic acid
Method in brief: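 Values are retention times taken from adduct peaks that software picked and an analyst inspected. The pure standards were run as mixtures of ~100 molecules on HPLC linked to a quadrupole time-of-flight mass spectrometer, in positive and negative ionization mode. A Zorbax Extend-C18 column (2.1 × 50 mm, 1.8 μm) was used at 100 μL/min with water and acetonitrile, each including 0.1% formic acid.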

| Structure (SMILES) | RP-LC retention time |
| --- | --- |
| O=C(O)c1nnn(-c2ccc3c(c2)CCC3)c1-c1ccncc1 | 662 s |
| C/C=C(\CCC1NCCc2c1[nH]c1ccccc21)[Si](C)(C)C (stereo unspecified) | 815 s |
| O=C(c1ccc(-c2cncnc2)nc1)N1CCN(c2ccc(Cl)cc2)CC1 | 796 s |
| CC(C)NC(=O)N1CCCN(Cc2cccs2)CC1 | 564 s |
| Cc1cc2c(cc1S(=O)(=O)N1CCCC1C(=O)Nc1ccc(F)cc1)OC(C)C(=O)N2 (stereo unspecified) | 775 s |
| CCOc1ccc(-n2ccnc(NC(=O)Nc3ccc(C)c(C)c3)c2=O)cc1 | 1090 s |
| Cn1ncc(NC(=O)c2ccc(Cl)cc2)c(N2CCOCC2)c1=O | 771 s |
| CCNC(=O)C1CC(=O)N(C2CCCCC2)C1 (stereo unspecified) | 623 s |
| COc1ccc(S(=O)(=O)NCc2cccnc2-c2cccc(C)c2)cc1 | 695 s |
| CC1=C(c2ccc(C)cc2)S(=O)(=O)N=C1N1CCC(NC(=O)C2CCCO2)CC1 (stereo unspecified) | 902 s |
| O=C(Cn1cnc2c(sc3nc(-c4ccccc4)ccc32)c1=O)NC1CCCC1 | 906 s |
| Cc1cccc(N2CCN(c3ccc4nnc(CCc5nc(-c6ccncc6)no5)n4n3)CC2)c1 | 846 s |
| O=C(CC1CCN(C(=O)NCc2ccccc2)CC1)NCc1ccc(F)cc1 | 737 s |
| CN1CCCn2cc(S(=O)(=O)NCCc3ccc(Cl)cc3)cc2C1=O | 752 s |
| Cc1cc(N(C)C)n2nc(CN3CCN(c4cccc(C)c4C)CC3)nc2n1 | 655 s |
| O=C(C1CC1)N1CCc2sc(S(=O)(=O)Nc3ccc(Cl)cc3)cc2C1 | 853 s |
| CCc1onc(C)c1C1CCCN1C(=O)Nc1ccc(C)c(F)c1 (stereo unspecified) | 879 s |
| Cc1cccc(NC(=O)N2[C@H]3CC[C@@H]2c2cncnc2C3)c1 | 674 s |
| Cc1nc(N2CCCC(C(=O)NC3CCCC3)C2)c2c(C)c(C)oc2n1 (stereo unspecified) | 799 s |
| Cc1noc(CNC(=O)c2cc(-c3cccs3)[nH]n2)n1 | 641 s |
| O=C(NCc1cccnc1)C1CCCN(C(=O)c2cc3ccsc3n2Cc2cccc(Cl)c2)C1 (stereo unspecified) | 711 s |

| Structure (SMILES) | RP-LC retention time |
| --- | --- |
| COc1ccc(-c2nnc(-c3ccc(OC)c(S(=O)(=O)N4CCCC4)c3)o2)cc1OC | 844 s |
| CCc1ccc(NC(=O)Cn2nc3n(c2=O)CCCCC3)cc1 | 709 s |
| O=C(NCCc1ccco1)c1c(-c2ccccc2)nnc2ccccc12 | 784 s |
| COc1cccc(NC(=O)NCCCN2CCN(c3ccccc3)CC2)c1OC | 582 s |
| CN(C)C(=O)c1cc(=O)[nH]c2ccc(F)cc12 | 577 s |
| Cc1cccc(-c2noc(Cc3nnc(-c4cccc(Br)c4)o3)n2)c1 | 1150 s |
| COCCN1CCn2cc(S(=O)(=O)Nc3ccc(C)cc3)cc2C1=O | 715 s |
| Cc1cc2c(cc1CNC(=O)c1cc3c(cc1C)OCCCO3)OCCO2 | 846 s |
| CCOC(=O)C1C(=O)C=C(c2cccc(NS(C)(=O)=O)c2)CC1c1cccs1 (stereo unspecified) | 822 s |
| Cc1ccc2c(C(=O)NCCc3cccs3)cc(NC(=O)C(C)C)cc2n1 | 643 s |
| CCCn1cc2c3c(cccc31)CN(C(=O)Nc1cc(OC)c(OC)c(OC)c1)CC2 | 970 s |
| Cc1ccc(S(=O)(=O)N2CCC(CCNC(=O)NC3CCCCC3)CC2)cc1 | 905 s |
| O=C(Nc1ccc(F)c(F)c1)C1CCCN(S(=O)(=O)Cc2ccc(F)cc2)C1 (stereo unspecified) | 990 s |
| CC1CCN(C(=O)C2CCCN(c3ccnc(-c4ccc(F)cc4)n3)C2)CC1 (stereo unspecified) | 706 s |
| CCc1nc(-c2ccc(C(=O)NC)cc2)no1 | 690 s |
| Cc1cc(C)c2c(n1)nn1c(N3CCN(c4ccccn4)CC3)cc(C)nc21 | 561 s |
| CCOC(=O)c1noc2nc(C)nc(Nc3ccc(Cl)cc3)c12 | 1200 s |
| CCN1CCCn2nc(C3CCN(C(=O)c4n[nH]c5ccccc45)CC3)cc2C1=O | 629 s |
| COc1ccc(N2CCN(C(=O)C3CCN(c4cnc5nccnc5c4)CC3)CC2)cc1 | 634 s |
| O=C(NC1CC1)c1cn(CCC2CCCCN2C(=O)C2CC2)nn1 (stereo unspecified) | 636 s |
| Cc1ccc(C)c(CNC(=O)c2nc(C)oc2C)c1 | 867 s |

| Structure (SMILES) | RP-LC retention time |
| --- | --- |
| Cc1ccc(-c2csc(NC(=O)CCc3nc(CSc4nc5ccc(C)cc5[nH]4)no3)n2)cc1 | 852 s |
| Cc1ccc(F)cc1S(=O)(=O)N1CCN(c2ccc(N3CCOCC3)nn2)CC1 | 592 s |
| CCOC(=O)c1cc(OC)c(OC)cc1NC(=O)c1cc(OC)c(OC)c(OC)c1 | 1030 s |
| COc1ccc(NC(=O)c2nc(C)oc2C)cc1OC | 750 s |
| COc1ccc(C)cc1NC(=O)C1CCCN(S(=O)(=O)c2c[nH]c(C(=O)N3CCCC3)c2)C1 (stereo unspecified) | 824 s |
| Cc1cc(C)cc(Nc2nc3ccncc3n(C(C)C)c2=O)c1 | 745 s |
| Cc1ccc(NS(=O)(=O)c2cc3n(c2)CCN(CC(C)C)C3=O)cc1 | 794 s |
| CCCN(Cc1ccsc1)C(=O)c1ccc(OC)c(OC)c1OC | 880 s |
| CC1CCN(S(=O)(=O)c2ccc(-c3nnc(C(=O)NC4CC4)o3)cc2)CC1 | 876 s |
| Cc1ccc(S(=O)(=O)N(C)CC2CCOC2)cc1Cl (stereo unspecified) | 895 s |
| Cc1cc(NC(=O)c2cc(Cl)ccc2Cl)n(C(C)C)n1 | 775 s |
| Cc1ccc(-n2c(=O)c3c(cc(C)n3C)n(CC(=O)Nc3ccc(C)c(C)c3)c2=O)cc1 | 906 s |
| CC1(C(=O)NC2CCCCCCC2)CN(S(C)(=O)=O)CC(=O)N1c1cccc(Cl)c1 (stereo unspecified) | 963 s |
| CCOC(=O)C1CCc2sc(NC(=O)Cc3noc4ccccc34)nc21 (stereo unspecified) | 818 s |
| Cc1nnc(-c2cccnc2N2CCN(C(=O)c3ccsc3)CC2)o1 | 675 s |
| Cc1ccc(S(=O)(=O)N2CCCC(CCC(=O)NCc3ccccc3)C2)cc1 (stereo unspecified) | 960 s |
| CN1C(=O)CCc2cc(NS(=O)(=O)c3cccc(Cl)c3)ccc21 | 783 s |
| Cc1ccc(-c2nnc(SCc3noc(CCC(=O)Nc4nccs4)n3)o2)cc1 | 816 s |
| Cc1cc(-c2nnc(-c3ccco3)o2)c(C)n1CC(=O)NCc1ccc(F)cc1F | 857 s |
| COc1cc(OC)c(NC(=O)NC2CCN(c3nc4ccccc4n(C)c3=O)CC2)cc1Cl | 945 s |

Continued, values first:

| RP-LC retention time | Structure (SMILES) |
| --- | --- |
| 653 s | Cc1ccccc1Nc1c(-c2ccc(O)cc2)nc2ccccn12 |
| 723 s | COc1cccc(CNC(=O)NCCc2nc3cccnc3n2Cc2ccccc2)c1 |
| 738 s | O=S(=O)(c1ccccc1F)N1CC(F)(F)C[C@H]1CN1CCc2ccccc2C1 |
| 661 s | Cn1cc(C(=O)NCc2nc(-c3ccccc3)no2)nn1 |
| 844 s | CCOC(=O)Cn1cccc1-c1nc(-c2ccncc2)no1 |
| 791 s | CCN1C(=O)c2cc(C(=O)NCCc3ccccc3)nn2CC1(C)C(=O)NC1CCCC1 (stereo unspecified) |
| 746 s | O=C(Nc1ccc(F)cc1)C1CCN(C(=O)C2Sc3ccccc3NC2=O)CC1 (stereo unspecified) |
| 677 s | O=C(NCc1cccnc1)C1c2ccccc2C(=O)N(C2CCCC2)C12CCCCC2 (stereo unspecified) |
| 808 s | CC(=O)N(Cc1nn(C)c2c1CN(S(=O)(=O)c1ccc(F)cc1F)CC2)c1ccccc1 |
| 631 s | O=C(Nc1ccccc1)c1nnc(CSCC(=O)N2CCN(c3ccccn3)CC2)s1 |
| 984 s | O=C1[C@H]2CN(Cc3ccc(C(F)(F)F)cc3)C[C@H]2C(=O)N1CCc1ccccc1 |
| 633 s | FC(F)(F)c1ccccc1-n1ccnc1 |
| 763 s | COC(=O)C1=CN(c2ccc(OC)c(OC)c2)c2ccccc2S1(=O)=O |
| 1350 s | Cc1ccc(NC(=O)C2CCCN(c3nc4ccccc4nc3C(F)(F)F)C2)c(Cl)c1 (stereo unspecified) |
| 753 s | CCOc1ccc2nc(Nc3nc(C)cc(C(F)(F)F)n3)nc(C)c2c1 |
| 812 s | CN(CC1CCOCC1)C(=O)Nc1ccc(C(F)(F)F)cc1 |
| 630 s | O=C(c1ccsc1)N1CCC(c2nncn2-c2ccccc2)CC1 |
| 973 s | Cc1ccccc1CNC(=O)c1cn(-c2ccc(-c3nc(C4CC4)no3)cn2)cn1 |
| 719 s | COCCC1CCN(C(=O)c2nccc3ccccc23)CC1 |
| 1310 s | Cc1ccccc1NC(=O)c1cc(C(C)(C)C)n2nccc2n1 |
| 716 s | Cc1c(-c2cccc(NC(=O)c3cc(Br)ccc3Cl)c2)nc2ncccn12 |
| 798 s | CS(=O)(=O)Nc1cccc(OCc2nnc(-c3ccccc3)o2)c1 |
| 1050 s | Cc1nc2cc(-c3noc(-c4ccccc4)n3)ccc2o1 |
| 677 s | CC(NC(=O)Cn1c(=O)c(=O)n(C)c2ncccc21)c1ccccc1 (stereo unspecified) |
| 791 s | COc1ccc2c(CCNC(=O)Nc3ccccc3)c[nH]c2c1 |
| 812 s | CCCn1cc(CCNC(=O)Nc2ccc(Cl)cc2)c2cccnc21 |
| 838 s | Cc1ccccc1Oc1nccn2c(=O)n(CC(=O)Nc3ccc(F)cc3)nc12 |
| 749 s | O=C(c1cn(-c2cc(Nc3ccccc3)ncn2)cn1)N1CCN(c2ncccn2)CC1 |
| 817 s | COc1ccc(-c2nc3cnccn3c2Nc2cccc(Cl)c2)cc1OC |
